39 molecules from patent US8119563B2, “N-substituted azacycles” (FMC Corporation, priority 2003, dated 2012) can be followed below.

This data set has as its system tobacco budworm (Heliothis virescens [Fabricius]). In words: surface-treated diet test, insecticidal activity against tobacco budworm. In kind it is in vivo. On the set-up: mortality: concentration or dose not given beside the values. To be noted: 0.25 millimoles of candidate insecticide on the surface of the diet, second instar larvae, five-day exposure. In a few lines: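 Second-instar larvae (~5 mg) were held five days at 25° C and 60% RH on artificial diet whose surface carried dried compound (0.25 millimolar standard rate; DMSO serial dilutions for rate series, six replicates each). Readouts: mortality and weight inhibition relative to DMSO-treated controls.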

Setting [1] is: compared to total number of insects infested.
[2] abbreviates: inhibition of insect weight relative to untreated controls.

For the molecule `OC1(C(c2ccc(OC(F)(F)F)cc2)c2ccc(OC(F)(F)F)cc2)CCN(Cc2ccc(Oc3ncccc3Cl)cc2)CC1` [Compound 322], the “Percent Mortality” value under setting [1] turned out to be 100%. The “Percent Growth Inhibition” value under setting [2] is on record as 100%.

Regarding `N#CCON=Cc1ccc(CN2CCC(O)(C(c3ccc(OC(F)(F)F)cc3)c3ccc(OC(F)(F)F)cc3)CC2)cc1` [Compound 275], the “Percent Mortality” value under setting [1] was found to be 100%. Moreover, the “Percent Growth Inhibition” value under setting [2] turned out to be 100%.

Consider `O=C([O-])CCCCC(=O)O.OC1(C(c2ccc(OC(F)(F)F)cc2)c2ccc(OC(F)(F)F)cc2)CC[N+](O)(Cc2ccc(Oc3ccccn3)cc2)CC1` (stereo not drawn) [Compound 516], for which the “Percent Mortality” value under setting [1] amounted to 100%. Under setting [2], the “Percent Growth Inhibition” value was 100%.

The term mortality denotes the percentage killed. With `FC(F)(F)Oc1ccc(C(c2ccc(OC(F)(F)F)cc2)C2(F)CCN(Cc3ccc(Oc4ncccn4)cc3)CC2)cc1` [Compound 192, 4-{bis[4-(trifluoromethoxy)phenyl]methyl}-4-fluoro-1-[(4-pyrimidin-2-yloxyphenyl)methyl]piperidine], the mortality (Heliothis virescens, 120 h, compared to total number of insects infested, read-out: Percent Mortality) came out at 100%. Also, the pest or weed control at 0.25 mmol/well (Heliothis virescens, 120 h, inhibition of insect weight relative to untreated controls, read-out: Percent Growth Inhibition) was found to be 100%.

For the molecule `[O-][N+]1(Cc2ccc(OCc3ccccc3)cc2)CCC(O)(C(c2ccc(OC(F)(F)F)cc2)c2ccc(OC(F)(F)F)cc2)CC1` (stereo not drawn) [Compound 381], the “Percent Mortality” value under setting [1] came to 100%. The “Percent Growth Inhibition” value under setting [2] was 100%.

Regarding `[O-][N+]1(Cc2ccc(C3OCCO3)cc2)CCC(O)(C(c2ccc(OC(F)(F)F)cc2)c2ccc(OC(F)(F)F)cc2)CC1` (stereo not drawn) [Compound 341], under setting [1], the “Percent Mortality” value is listed as 100%. Moreover, the “Percent Growth Inhibition” value under setting [2] worked out at 100%.

Regarding `[O-][N+]1(Cc2ccc(C=NOCCF)cc2)CCC(O)(C(c2ccc(OC(F)(F)F)cc2)c2ccc(OC(F)(F)F)cc2)CC1` (stereo not drawn) [Compound 389], the “Percent Mortality” value under setting [1] stood at 100%. Also, under setting [2], the “Percent Growth Inhibition” value worked out at 100%.

In the case of `[O-][N+]1(Cc2ccc(Oc3ncccn3)cc2)CCC(O)(C(c2ccc(Cl)c(F)c2)c2ccc(Cl)c(F)c2)CC1` (stereo not drawn) [Compound 115], the “Percent Mortality” value under setting [1] was determined as 50%. Also, the “Percent Growth Inhibition” value under setting [2] is 100%.

On to `O=C([O-])CCCCCC(=O)O.OC1(C(c2ccc(OC(F)(F)F)cc2)c2ccc(OC(F)(F)F)cc2)CC[N+](O)(Cc2ccc(Oc3ccccn3)cc2)CC1` (stereo not drawn) [Compound 514], for which the “Percent Mortality” value under setting [1] is 100%. Besides, the “Percent Growth Inhibition” value under setting [2] is reported as 100%.

As for `COCCOCCON=Cc1ccc(CN2CCC(O)(C(c3ccc(OC(F)(F)F)cc3)c3ccc(OC(F)(F)F)cc3)CC2)cc1` [Compound 258], the “Percent Mortality” value under setting [1] worked out at 100%. Further, the “Percent Growth Inhibition” value under setting [2] came to 100%.

With `OC1(C(c2ccc(OC(F)(F)F)cc2)c2ccc(OC(F)(F)F)cc2)CCN(Cc2ccc(Oc3ccc(Cl)cc3)cc2)CC1` [Compound 290], the “Percent Mortality” value under setting [1] stood at 100%. The “Percent Growth Inhibition” value under setting [2] is reported as 100%.

`CCCCNC(=O)Oc1ccc(CN2CCC(O)(C(c3ccc(OC(F)(F)F)cc3)c3ccc(OC(F)(F)F)cc3)CC2)cc1` [Compound 326]: the “Percent Mortality” value under setting [1] stood at 100%. The “Percent Growth Inhibition” value under setting [2] stood at 100%.

Turning to `COc1ccc(C(c2ccc(OC(F)(F)F)cc2)C2(O)CC[N+]([O-])(Cc3ccc(Oc4ccccn4)cc3)CC2)cc1` (stereo not drawn) [Compound 338], the “Percent Mortality” value under setting [1] was 100%. The “Percent Growth Inhibition” value under setting [2] turned out to be 100%.

On to `CC(=O)OCC1(C(c2ccc(C(F)(F)F)cc2)c2ccc(C(F)(F)F)cc2)CCN(Cc2ccc(Oc3ncccn3)cc2)CC1` [Compound 452], for which the “Percent Mortality” value under setting [1] is 0%. Also, the “Percent Growth Inhibition” value under setting [2] turned out to be 100%.

In the case of `O=C(Nc1ccc(C[N+]2([O-])CCC(O)(C(c3ccc(OC(F)(F)F)cc3)c3ccc(OC(F)(F)F)cc3)CC2)cc1)OCC1CC1` (stereo not drawn) [Compound 404], under setting [1], the “Percent Mortality” value worked out at 100%. Also, the “Percent Growth Inhibition” value under setting [2] is listed as 100%.

On to `NC(=O)CON=Cc1ccc(C[N+]2([O-])CCC(O)(C(c3ccc(OC(F)(F)F)cc3)c3ccc(OC(F)(F)F)cc3)CC2)cc1` (stereo not drawn) [Compound 410], for which the “Percent Mortality” value under setting [1] is reported as 100%. The “Percent Growth Inhibition” value under setting [2] turned out to be 100%.

Take `OC1(C(c2ccc(OC(F)(F)F)cc2)c2cccc(Cl)c2)CCN(Cc2ccc(Oc3ccccn3)cc2)CC1` (stereo not drawn) [Compound 439]: under setting [1], the “Percent Mortality” value is reported as 100%. Further, the “Percent Growth Inhibition” value under setting [2] is 100%.

Consider `OC1(C(c2ccc(C(F)(F)F)cc2)c2cc(F)cc(F)c2)CCN(Cc2ccc(Oc3ncccn3)cc2)CC1` (stereo not drawn) [Compound 11], for which the “Percent Mortality” value under setting [1] is reported as 33%. Besides, under setting [2], the “Percent Growth Inhibition” value is listed as 100%.

Take `CCn1nnc(-c2ccc(CN3CCC(O)(C(O)(c4ccc(OC(F)(F)F)cc4)c4ccc(OC(F)(F)F)cc4)CC3)cc2)n1` [Compound 416]: under setting [1], the “Percent Mortality” value is on record as 100%. Moreover, under setting [2], the “Percent Growth Inhibition” value came out at 100%.

Consider `CCn1nnc(-c2ccc(C[N+]3([O-])CCC(O)(C(O)(c4ccc(OC(F)(F)F)cc4)c4ccc(OC(F)(F)F)cc4)CC3)cc2)n1` (stereo not drawn) [Compound 426], for which, under setting [1], the “Percent Mortality” value came out at 100%. In addition, under setting [2], the “Percent Growth Inhibition” value is reported as 100%.

For `OC(COc1ccc(Cl)cc1)CN1CCC(O)(C(c2ccc(OC(F)(F)F)cc2)c2ccc(OC(F)(F)F)cc2)CC1` (stereo not drawn) [Compound 470], the “Percent Mortality” value under setting [1] came out at 17%. Under setting [2], the “Percent Growth Inhibition” value worked out at 89%.

For the molecule `[O-][N+]1(Cc2ccc(OCC3CC3)cc2)CCC(O)(C(c2ccc(OC(F)(F)F)cc2)c2ccc(OC(F)(F)F)cc2)CC1` (stereo not drawn) [Compound 392], the “Percent Mortality” value under setting [1] is reported as 100%. Further, the “Percent Growth Inhibition” value under setting [2] is reported as 100%.

As to `OC1(C(c2ccc(OC(F)(F)F)cc2)c2cc(Cl)cc(Cl)c2)CCN(Cc2ccc(Oc3ccccn3)cc2)CC1` (stereo not drawn) [Compound 442], under setting [1], the “Percent Mortality” value turned out to be 100%. In addition, under setting [2], the “Percent Growth Inhibition” value turned out to be 100%.

For `O=S(=O)([O-])CCCO.OC1(C(c2ccc(OC(F)(F)F)cc2)c2ccc(OC(F)(F)F)cc2)CC[N+](O)(Cc2ccc(Oc3ccccn3)cc2)CC1` (stereo not drawn) [Compound 500], the “Percent Mortality” value under setting [1] came to 100%. Further, the “Percent Growth Inhibition” value under setting [2] is given as 100%.

For `OC1(C(c2ccc(C(F)(F)F)cc2)c2ccc(C(F)(F)F)cc2)CCN(Cc2ccc(Oc3ccc(Cl)nn3)cc2)CC1` [Compound 307], under setting [1], the “Percent Mortality” value is recorded as 100%. Besides, the “Percent Growth Inhibition” value under setting [2] was found to be 100%.

For the molecule `[O-][N+]1(Cc2ccc(Oc3ccccn3)cc2)CCC(O)(C(c2ccc3c(c2)OC(F)(F)O3)c2ccc3c(c2)OC(F)(F)O3)CC1` (stereo not drawn) [Compound 464], the “Percent Mortality” value under setting [1] worked out at 100%. The “Percent Growth Inhibition” value under setting [2] worked out at 100%.

Take `CC(C)OC(=O)Nc1ccc(CN2CCC(O)(C(O)(c3ccc(OC(F)(F)F)cc3)c3ccc(OC(F)(F)F)cc3)CC2)cc1` [Compound 419]: the “Percent Mortality” value under setting [1] is 100%. Besides, the “Percent Growth Inhibition” value under setting [2] was determined as 100%.

Consider `CCON=Cc1ccc(CN2CCC(O)(C(O)(c3ccc(OC(F)(F)F)cc3)c3ccc(OC(F)(F)F)cc3)CC2)cc1` [Compound 417], for which, under setting [1], the “Percent Mortality” value is on record as 100%. Further, the “Percent Growth Inhibition” value under setting [2] was 100%.

As for `O=C([O-])CCCC(=O)O.OC1(C(c2ccc(OC(F)(F)F)cc2)c2ccc(OC(F)(F)F)cc2)CC[N+](O)(Cc2ccc(Oc3ccccn3)cc2)CC1` (stereo not drawn) [Compound 512], the “Percent Mortality” value under setting [1] is 100%. Also, under setting [2], the “Percent Growth Inhibition” value stood at 100%.

As to `CCON=Cc1ccc(C[N+]2(O)CCC(O)(C(c3ccc(OC(F)(F)F)cc3)c3ccc(OC(F)(F)F)cc3)CC2)cc1.O=S(=O)([O-])C(F)(F)C(F)(F)C(F)(F)C(F)(F)F` (stereo not drawn) [Compound 487], the “Percent Mortality” value under setting [1] was 100%. In addition, the “Percent Growth Inhibition” value under setting [2] worked out at 100%.

For the molecule `CCS(=O)(=O)[O-].OC1(C(c2ccc(C(F)(F)F)cc2)c2ccc(C(F)(F)F)cc2)CC[N+](O)(Cc2ccc(Oc3ccc(Cl)nn3)cc2)CC1` (stereo not drawn) [Compound 518], the “Percent Mortality” value under setting [1] came out at 100%. Moreover, under setting [2], the “Percent Growth Inhibition” value amounted to 100%.

On to `CC(C)=CCCC(C)=CCON=Cc1ccc(CN2CCC(O)(C(c3ccc(OC(F)(F)F)cc3)c3ccc(OC(F)(F)F)cc3)CC2)cc1` [Compound 305], for which the “Percent Mortality” value under setting [1] is given as 0%. Moreover, under setting [2], the “Percent Growth Inhibition” value came to 31%.

Regarding `[O-][N+]1(Cc2ccc(Oc3ccccn3)cc2)CCC(O)(C(c2ccc(OC(F)(F)F)cc2)c2cc(Cl)ccc2Cl)CC1` (stereo not drawn) [Compound 460], under setting [1], the “Percent Mortality” value turned out to be 100%. Under setting [2], the “Percent Growth Inhibition” value was determined as 100%.

On to `[O-][N+]1(Cc2ccc(Oc3ccccn3)cc2)CCC(O)(C(c2ccc(OC(F)(F)F)cc2)c2cccc(Cl)c2)CC1` (stereo not drawn) [Compound 458], for which the “Percent Mortality” value under setting [1] is given as 100%. The “Percent Growth Inhibition” value under setting [2] is 100%.

With `OC(c1ccc(Cl)cc1)c1ccc(CN2CCC(O)(C(c3ccc(OC(F)(F)F)cc3)c3ccc(OC(F)(F)F)cc3)CC2)cc1` (racemic) [Compound 278], under setting [1], the “Percent Mortality” value is on record as 100%. Besides, the “Percent Growth Inhibition” value under setting [2] amounted to 100%.

Turning to `CC(C)OC(=O)Nc1ccc(C[N+]2([O-])CCC(O)(C(c3ccc(OC(F)(F)F)cc3)c3ccc(OC(F)(F)F)cc3)CC2)cc1` (stereo not drawn) [Compound 119], the “Percent Mortality” value under setting [1] is reported as 100%. For the same molecule, the “Percent Growth Inhibition” value under setting [2] turned out to be 100%.

Turning to `CCn1nnc(-c2ccc(CN3CCC(O)(C(c4ccc(C(F)(F)F)cc4)c4ccc(C(F)(F)F)cc4)CC3)cc2)n1` [Compound 27], the “Percent Mortality” value under setting [1] is 100%. Further, under setting [2], the “Percent Growth Inhibition” value worked out at 100%.

With `ON=Cc1ccc(CN2CCC(O)(C(c3ccc(C(F)(F)F)cc3)c3ccc(C(F)(F)F)cc3)CC2)cc1` [Compound 270], the “Percent Mortality” value under setting [1] is recorded as 100%. Also, the “Percent Growth Inhibition” value under setting [2] was found to be 100%.

In the case of `Cc1cccc(Oc2ccc(C[N+]3([O-])CCC(O)(C(c4ccc(OC(F)(F)F)cc4)c4ccc(OC(F)(F)F)cc4)CC3)cc2)n1` (stereo not drawn) [Compound 354], the “Percent Mortality” value under setting [1] turned out to be 100%. Also, the “Percent Growth Inhibition” value under setting [2] was determined as 100%.
